Legend:
[1] = molecular target: T1, Induced myeloid leukemia cell differentiation protein Mcl-1 (Homo sapiens, UniProt Q07820); assay: Inhibition of FITC-Bak-BH3 binding to recombinant MBP-fused MCL1 (172 to 318 residues) (unknown origin) by TR-FRET assay
[2] = molecular target: T1, Induced myeloid leukemia cell differentiation protein Mcl-1; assay: Inhibition of FITC-Bak-BH3 binding to recombinant MBP-fused MCL1 (172 to 318 residues) (unknown origin) in presence of 1% FBS by TR-FRET assay

T1 sequence (Q07820 whole entry, the tested form may be a part): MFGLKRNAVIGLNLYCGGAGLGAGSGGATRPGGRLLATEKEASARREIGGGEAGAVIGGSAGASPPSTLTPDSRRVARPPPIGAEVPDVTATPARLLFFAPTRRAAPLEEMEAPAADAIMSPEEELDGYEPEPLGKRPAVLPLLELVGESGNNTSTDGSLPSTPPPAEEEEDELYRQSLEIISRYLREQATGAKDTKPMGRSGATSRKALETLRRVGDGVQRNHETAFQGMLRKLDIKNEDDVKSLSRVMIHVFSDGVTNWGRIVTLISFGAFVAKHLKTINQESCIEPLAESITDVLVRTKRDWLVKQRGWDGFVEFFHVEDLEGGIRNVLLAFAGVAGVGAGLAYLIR

| Compound | Ki [1] [nM] | Ki [2] [nM] |
| --- | --- | --- |
| Cc1cc(OCCCc2c(C(=O)O)[nH]c3c(-c4c(COCCN(C)C)nn(C)c4C)cccc23)cc(C)c1Cl | 20 | 32 |
| Cc1cc(OCCCc2c(C(=O)O)[nH]c3c(-c4c(C)nn(C)c4C)cccc23)cc(C)c1Cl | 48 | 262 |
| Cc1cc(OCCCc2c(C(=O)O)[nH]c3c(-c4c(CN5CCCCC5)nn(C)c4C)cccc23)cc(C)c1Cl | 22 | 73 |

— ChEMBL document CHEMBL4033646, “Structure of a Myeloid cell leukemia-1 (Mcl-1) inhibitor bound to drug site 3 of Human Serum Albumin” (Bioorg Med Chem, 2017)
